Our source for the Ki values is US5817756A, “Pseudo- and non-peptide bradykinin receptor antagonists” (Scios Inc., priority 1995, dated 1998).

For test [1], the target named is T1, human bradykinin B2 receptor (Homo sapiens, UniProt P30411).
T1 construct: The HindIII/XbaI fragment of one full-length clone, 126A, was inserted into pcDNAI neo vector; expressed in transfected cells
T1 sequence (P30411 1-391): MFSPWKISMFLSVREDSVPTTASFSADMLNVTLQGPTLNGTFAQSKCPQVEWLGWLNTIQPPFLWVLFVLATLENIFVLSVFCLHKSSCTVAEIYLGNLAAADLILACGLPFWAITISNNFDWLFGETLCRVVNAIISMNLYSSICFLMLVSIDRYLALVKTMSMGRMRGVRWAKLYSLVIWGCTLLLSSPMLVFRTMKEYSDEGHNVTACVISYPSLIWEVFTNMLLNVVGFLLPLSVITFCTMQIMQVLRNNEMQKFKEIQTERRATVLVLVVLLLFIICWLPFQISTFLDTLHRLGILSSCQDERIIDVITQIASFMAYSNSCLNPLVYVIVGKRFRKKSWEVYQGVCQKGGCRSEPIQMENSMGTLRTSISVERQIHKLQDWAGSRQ
Description: Radioligand binding, H2O.2 cell membranes, 3H-NPC17731. The following applies: Table 2; 3H-NPC17731; read-out: Radioligand Binding, Ki Human 3H17731. On the procedure: (§1) A human bradykinin B2 receptor was expressed in CHO/K cells. Briefly, approximately 2×10^6 plaques from a human uterus λgt10 cDNA library (Clontech Laboratories; Palo Alto, Calif.) were screened using a PCR fragment containing the coding region of the rat B2 receptor. This probe was generated by random-primed synthesis in the presence of α[^32 P]dATP. Duplicate filters were hybridized overnight at 42° C. in 1M NaCl, 50 mM Tris pH 7.5, 5× Denhardt's, 200 μg/ml salmon sperm DNA, 1% SDS, and 20% formamide. The filters were washed at 65° C. in 1× SSC and 1% SDS. Coincident positively hybridizing plaques were purified and rescreened with the same probe and stringency conditions. EcoRI fragments of positive clones were inserted into Bluescript/KS II+vector (Stratagene; La Jolla, Calif.) for sequence determination.
(§2) The nucleotide sequence of the cloned human B2 receptors was determined using double-stranded DNA and the dideoxy chain termination method. Commercially available T3 and T7 oligonucleotides (USB; Cleveland, Ohio) and synthetic 21-mer oligonucleotides (DNA/RNA Synthesizer; applied Biosystems Inc.; Palo Alto, Calif.) from both the known rat sequence and the determined human sequence were used to identify the nucleotide sequence from the 5' untranslated end to the BglII site in the 3' untranslated end of the clone.
(§3) CHO/K cells were plated in 2 ml of growth medium (Ham's F12 with 10% FBS) per 6 well plate and incubated at 37° C., 5% CO2 until they were 60% confluent. For each well, 4, 12, and 16 μg of DNA was diluted in 100 μl Opti-MEM I reduced serum medium (Gibco/BRL; Gaithersburg, Md.). 12 μl of TransfectASE reagent (Gibco/BRL) was diluted in a separate aliquot of 100 μl Opti-MEM I. The DNA and TransfecASE solutions were combined, mixed gently, and incubated at 25° C. for 15 minutes. This solution was then diluted to 1 ml with Opti-MEM I. Each well was washed twice with Opti-MEM I and 1 ml of the DNA/TransfectAse complex was added to each well. After a 5 hour incubation at 37° C. and 5% CO2, 1 ml of Ham's F12 with 20% FBS was added to each well and cells were incubated overnight. Media was replaced with growth medium and incubated for additional 24 hours.
(§4) This assay measures the ability of a bradykinin antagonist compound to compete for binding to the human B2 receptor with tritiated bradykinin or tritiated NPC17731, a bradykinin analog which is known to bind the B2 receptor and act as a bradykinin antagonist.
(§5) H2O.2 cells were grown to confluency in Ham's F12 media containing 10% FBS and 500 μg/ml Geneticin. Growth media was aspirated and the monolayer washed once with Dulbecco's PBS without Ca^++ and Mg^++. Cells were scraped in Dulbecco's PBS and centrifuged at 2,000×g for 10 minutes. Pellets were resuspended in 25 mM TES, 1 mM 1,10-phenanthroline pH 6.8 buffer and homogenized using a Ploytron at setting 5 for 10 seconds. An aliquot was taken for a protein determination using a BioRad protein assay kit. Membranes were centrifuged at 48,000×g for 10 minutes at 4° C. Pellets were resuspended in the TES buffer with 0.1% BSA and 0.014% bacitracin. 0.5 ml aliquots were frozen in liquid N2 and stored at -80° C. for up to 2 weeks.
(§6) Membranes from H2O.2 cells previously prepared were thawed at 37° C. and diluted in 25 mM TES, […] 1,10-phenanthroline pH 6.8 containing BSA and bactiracin. […] Non-specific binding was determined with 1 μM bradykinin. The tubes were incubated 90 minutes at 25° C. and the assay was terminated by rapid vacuum filtration onto Whatman GF/B filters presoaked with 0.2% PEI for 3 hours followed by 2×3 ml aliquots of ice-cold 50 mM Tris, pH 7.4. Radioactivity was counted with a Beckman scintillation counter.

Test [2] concerns the target T1, human bradykinin B2 receptor. Briefly: Radioligand binding, H2O.2 cell membranes, 3H-bradykinin. The following applies: Table 2, read-out: Radioligand Binding, Ki Human 3HBK. The procedure: as §1, §2, §3, §4, §5, §6
In a further test the target is T2, human B2 receptor (Homo sapiens, UniProt P30411).
T2 construct: The HindIII/XbaI fragment of one full-length clone, 126A, was inserted into pcDNAI neo vector; expressed in transfected cells
T2 sequence (P30411 1-391): T1 sequence (P30411 1-391)
Description: Whole cell binding assay, 3H-bradykinin. The conditions noted are these: Table 2, whole cells, read-out: Radioligand Binding, Ki Whole Cell 3HBK. On the procedure:
Binding to confluent monolayers of transfected cells expressing the human B2 receptor (7,000 fmol/receptor/mg) grown in 24-well plates was measured by incubating cells in 1 ml cell binding buffer (PBS/Ca/Mg, 1% BSA, 0.14 mg/ml bacitracin) containing 10^-10 M ^3 H-bradykinin and various concentrations of unlabeled analogs for 4 to 10 hours at 4° C. Cells were washed three times with cell binding buffer and lysed in 0.1N NaOH. An aliquot of the lysate was counted to measure radioactivity bound.

A word on the Ki: it is a measure of affinity in units of concentration, obtained from inhibition or displacement.

For the compound `N=C(N)NCCC[C@@H](N)C(=O)N[C@@H](CCCNC(=N)N)C(=O)N1CCC2(CC1)C(=O)N(CC(=O)N1CCc3c(n(CC(=O)N[C@@H](CCCNC(=N)N)C(=O)O)c4ccccc34)C1)CN2c1ccccc1` [Compound 2], the Ki was 94 nM in test [1], 1800 nM in test [2] and 10400 nM at human B2 receptor.
